Activity calls are given as the source filed them. No cut-off for these calls is given here.
Columns and labels:
Assay type in all cases: functional, cell-based
[1] = Cardioprotective activity against hypoxia-induced neonatal rat ventricular myocytes damage assessed as increase in hydrogen sulfide level at 1 uM treated 12 hrs before hypoxia challenge measured after 5 hrs; settings: Ventricular myocyte
[2] = Cardioprotective activity against hypoxia-induced neonatal rat ventricular myocytes damage assessed as decrease of LDH release at 1 uM treated 12 hrs before hypoxia challenge measured after 5 hrs; settings: Ventricular myocyte
[3] = Cardioprotective activity against hypoxia-induced neonatal rat ventricular myocytes damage assessed as decrease of creatine kinase release at 1 uM treated 12 hrs before hypoxia challenge measured after 5 hrs; settings: Ventricular myocyte
Ventricular myocyte [4] = assay: Cardioprotective activity against hypoxia-induced neonatal rat ventricular myocytes damage assessed as increased cell viability at 1 uM treated 12 hrs before hypoxia challenge measured after 5 hrs by MTT assay
Ventricular myocyte [5] = assay: Cardioprotective activity against hypoxia-induced neonatal rat ventricular myocytes damage assessed as increased cell viability at 10 uM treated 12 hrs before hypoxia challenge measured after 5 hrs by MTT assay
[6] = Cardioprotective activity against hypoxia-induced neonatal rat ventricular myocytes damage assessed as decrease of LDH release at 10 uM treated 12 hrs before hypoxia challenge measured after 5 hrs; settings: Ventricular myocyte
[7] = Cardioprotective activity against hypoxia-induced neonatal rat ventricular myocytes damage assessed as increase in hydrogen sulfide level at 10 uM treated 12 hrs before hypoxia challenge measured after 5 hrs; settings: Ventricular myocyte
[8] = Cardioprotective activity against hypoxia-induced neonatal rat ventricular myocytes damage assessed as decrease of creatine kinase release at 10 uM treated 12 hrs before hypoxia challenge measured after 5 hrs; settings: Ventricular myocyte
[9] = Antiapoptotic activity against hypoxia-induced neonatal rat ventricular myocytes damage assessed as decrease in nuclear condensation at 0.1 uM using Hoechst 33258 staining by fluorescence microscopy; settings: Ventricular myocyte
[10] = Cardioprotective activity against hypoxia-induced neonatal rat ventricular myocytes damage assessed as decrease in malondialdehyde level at 0.1 uM treated 12 hrs before hypoxia challenge measured after 5 hrs; settings: Ventricular myocyte
[11] = Cardioprotective activity against hypoxia-induced neonatal rat ventricular myocytes damage assessed as increase in hydrogen sulfide level at 0.1 uM treated 12 hrs before hypoxia challenge measured after 5 hrs; settings: Ventricular myocyte
Ventricular myocyte [12] = assay: Cardioprotective activity against hypoxia-induced neonatal rat ventricular myocytes damage assessed as increased cell viability at 0.1 uM treated 12 hrs before hypoxia challenge measured after 5 hrs by MTT assay
[13] = Cardioprotective activity against hypoxia-induced neonatal rat ventricular myocytes damage assessed as decrease of LDH release at 0.1 uM treated 12 hrs before hypoxia challenge measured after 5 hrs; settings: Ventricular myocyte
[14] = Cardioprotective activity against hypoxia-induced neonatal rat ventricular myocytes damage assessed as increase in superoxide dismutase activity against 0.1 uM treated 12 hrs before hypoxia challenge measured after 5 hrs; settings: Ventricular myocyte
[15] = Cardioprotective activity against hypoxia-induced neonatal rat ventricular myocytes damage assessed as decrease of creatine kinase release at 0.1 uM treated 12 hrs before hypoxia challenge measured after 5 hrs; settings: Ventricular myocyte
[16] = Antiapoptotic activity against hypoxia-induced neonatal rat ventricular myocytes damage assessed as decrease in nuclei-shrunk at 0.1 uM using Hoechst 33258 staining by fluorescence microscopy; settings: Ventricular myocyte

SMILES	Activity [1]	Activity [2]	Activity [3]	Activity (Ventricular myocyte [4])	Activity (Ventricular myocyte [5])	Activity [6]	Activity [7]	Activity [8]	Activity [9]	Activity [10]	Activity [11]	Activity (Ventricular myocyte [12])	Activity [13]	Activity [14]	Activity [15]	Activity [16]
COc1cc(C(=O)OCCCCNC(=N)N)cc(OC)c1O	inactive	Active	Active	Active												
C#CCSC[C@H](N)C(=O)O					Active	Active	20.2 µmol/L	Active								
C#CCSC[C@H](N)C(=O)Oc1c(OC)cc(C(=O)OCCCCNC(=N)N)cc1OC		Active	Active	Active	Active	Active		Active	Active	Active	21.5 µmol/L	Non-toxic	Active	Active	Active	Active

Reference: ChEMBL document CHEMBL1287704, “Synthesis and biological evaluation of novel leonurine-SPRC conjugate as cardioprotective agents” (Bioorg Med Chem Lett, 2010)
